According to patent US20120076766A1, “Topical drug delivery system with dual carriers” (priority 2010, published 2012):

Assays:
HL-60 cells = settings: cited from earlier work
MRSA = experiment: Study III: human field study, diabetic foot lesion with cellulitus; type: in vivo; settings: IV, for MRSA, 8 days following admission
Experimental: In this embodiment, the additional ingredient to hasten a third therapeutic tissue healing effect was added. This embodiment used vitamin D in a small but medically efficacious amount.

Row | Molecule | amount at which results (desired cellular responses) occurred (HL-60 cells) | patient response to treatment (MRSA) | subsequent retinoid-induced TGM2 expression (HL-60 cells; priming of the cells by pretreatment)
1 | C[S+](C)[O-] [DMSO, dimethyl sulfoxide] | less than 2% |  | 
2 | CN[C@H](CC(C)C)C(=O)N[C@H]1C(=O)N[C@@H](CC(N)=O)C(=O)N[C@H]2C(=O)N[C@H]3C(=O)N[C@H](C(=O)N[C@H](C(=O)O)c4cc(O)cc(O)c4-c4cc3ccc4O)[C@H](O)c3ccc(c(Cl)c3)Oc3cc2cc(c3O[C@@H]2O[C@H](CO)[C@@H](O)[C@H](O)[C@H]2O[C@H]2C[C@](C)(N)[C@H](O)[C@H](C)O2)Oc2ccc(cc2Cl)[C@H]1O [vancomycin, Vancomycin] |  | did not respond | 
3 | vitamin D | about 100 nM |  | increases
